Key:
[1] = target: T1, human TTK (Homo sapiens, UniProt P33981); assay: TTK inhibition assay (indirect ELISA); format: biochemical; conditions: GST-TTK 0.68 nM, 16 μM ATP; read-out: IC50 Ranges TTK
T1 construct: amino terminal GST fusion of full length human TTK; purchased Invitrogen
T1 sequence (P33981 1-857): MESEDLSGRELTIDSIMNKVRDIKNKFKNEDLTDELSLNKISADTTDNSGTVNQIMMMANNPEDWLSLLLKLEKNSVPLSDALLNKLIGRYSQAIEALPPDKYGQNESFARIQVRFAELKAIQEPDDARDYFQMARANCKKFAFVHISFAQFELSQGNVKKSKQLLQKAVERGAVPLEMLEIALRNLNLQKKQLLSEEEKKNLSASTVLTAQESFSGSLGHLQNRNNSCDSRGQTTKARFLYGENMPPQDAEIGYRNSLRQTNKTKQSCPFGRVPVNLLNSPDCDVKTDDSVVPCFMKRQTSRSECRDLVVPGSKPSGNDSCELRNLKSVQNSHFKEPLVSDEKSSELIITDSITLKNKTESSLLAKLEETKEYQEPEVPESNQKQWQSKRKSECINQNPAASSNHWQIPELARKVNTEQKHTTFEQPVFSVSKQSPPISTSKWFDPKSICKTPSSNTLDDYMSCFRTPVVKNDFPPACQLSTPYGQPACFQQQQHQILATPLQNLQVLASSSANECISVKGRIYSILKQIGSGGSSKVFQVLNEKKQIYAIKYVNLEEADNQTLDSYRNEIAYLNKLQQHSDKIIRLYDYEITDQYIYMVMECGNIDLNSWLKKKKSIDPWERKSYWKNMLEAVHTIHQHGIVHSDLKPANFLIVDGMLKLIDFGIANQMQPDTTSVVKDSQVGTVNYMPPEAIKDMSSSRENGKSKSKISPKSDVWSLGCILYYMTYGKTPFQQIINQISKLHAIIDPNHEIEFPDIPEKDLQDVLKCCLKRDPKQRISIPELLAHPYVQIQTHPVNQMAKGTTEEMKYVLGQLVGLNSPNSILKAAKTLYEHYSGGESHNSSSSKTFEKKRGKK

[2] = target: T2, human PLK4 (Homo sapiens, UniProt O00444); assay: PLK4 inhibition assay (indirect ELISA); format: biochemical; conditions: GST-PLK4 4 nM, 15 μM ATP; read-out: IC50 Ranges PLK4
T2 construct: amino terminal GST fusion of residues 1-391 of human PLK4; made in house; host or cells: E. coli
T2 sequence (O00444 1-391): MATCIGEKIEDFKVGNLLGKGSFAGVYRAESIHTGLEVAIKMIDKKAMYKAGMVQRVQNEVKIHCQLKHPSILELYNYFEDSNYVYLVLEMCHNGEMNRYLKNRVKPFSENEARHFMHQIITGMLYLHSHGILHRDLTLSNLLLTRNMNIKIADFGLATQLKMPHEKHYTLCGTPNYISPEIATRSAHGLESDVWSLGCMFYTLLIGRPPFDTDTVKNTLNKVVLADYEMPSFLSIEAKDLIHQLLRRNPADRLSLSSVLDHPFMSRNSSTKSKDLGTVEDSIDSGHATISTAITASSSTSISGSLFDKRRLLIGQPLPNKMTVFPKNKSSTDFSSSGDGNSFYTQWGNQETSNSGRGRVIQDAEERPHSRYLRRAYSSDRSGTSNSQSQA
Outline: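 Compounds were tested either at a single 10 μM dose or across 10-point titrations (typically 0.5 to 0.001 μM), preincubated 15 min with 4 nM GST-PLK4 (human 1-391, dephosphorylated) before 15 μM ATP was added. MBP substrate phosphorylation over 30 min, pH 7.5 HEPES/MgCl2 buffer, read by HRP/TMB ELISA (450 nm). % inhibition vs. high-activity control; IC50 by logistic fit.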

[3] = target: T3, Aurora B (Homo sapiens, UniProt Q96GD4); assay: Aurora B inhibition assay (Z-Lyte); format: biochemical; conditions: 28 nM Aurora B, 128 μM ATP; read-out: IC50 Ranges Aurora B
T3 construct: purchased Invitrogen PV3970
T3 sequence (Q96GD4 whole entry): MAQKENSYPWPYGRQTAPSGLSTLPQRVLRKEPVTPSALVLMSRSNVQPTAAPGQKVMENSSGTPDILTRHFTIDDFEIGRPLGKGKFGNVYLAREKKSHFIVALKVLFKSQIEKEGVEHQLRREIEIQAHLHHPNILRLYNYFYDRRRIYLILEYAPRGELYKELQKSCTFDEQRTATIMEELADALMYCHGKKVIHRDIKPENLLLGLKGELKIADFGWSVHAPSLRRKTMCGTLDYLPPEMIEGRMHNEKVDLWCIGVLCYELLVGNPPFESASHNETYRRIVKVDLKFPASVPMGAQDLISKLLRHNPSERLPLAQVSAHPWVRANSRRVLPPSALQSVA
Procedure: Aurora B inhibition was determined using the Z-Lyte assay kit from Invitrogen. The assay was performed using the recommended manufacturer's instructions with 128 μM ATP and 28 nM Aurora B (Invitrogen cat #PV3970). The % inhibition values were determined according to the manufacturer's directions and IC50 values were obtained using a non-linear 4 point logistic curve fit (XLfit4, IDBS)

[4] = test system: MDA-MB-231 breast cancer cells; assay: Cell growth inhibition, Sulforhodamine B assay, MDA-MB-231; format: cell-based; conditions: Homo sapiens, 120 h, 5 days culture, SRB assay, read-out: Cell Line GI50 Range MDA-MB-231
[5] = test system: MDA-MB-468 breast cancer cells; assay: Cell growth inhibition, Sulforhodamine B assay, MDA-MB-468; format: cell-based; conditions: Homo sapiens, 120 h, 5 days culture, SRB assay, read-out: Cell Line GI50 Range MDA-MB-468
[6] = test system: HCT116 colon cancer cells; assay: Cell growth inhibition, Sulforhodamine B assay, HCT116; format: cell-based; conditions: Homo sapiens, HCT-116, 120 h, 5 days culture, SRB assay, read-out: Cell Line GI50 Range HCT116
[7] = test system: HT29 colon cancer cells; assay: Cell growth inhibition, Sulforhodamine B assay, HT29; format: cell-based; conditions: Homo sapiens, HT-29, 120 h, 5 days culture, SRB assay, read-out: Cell Line GI50 Range HT29
[8] = test system: OVCAR-3 ovarian cancer cells; assay: Cell growth inhibition, Sulforhodamine B assay, OVCAR-3; format: cell-based; conditions: Homo sapiens, 120 h, 5 days culture, SRB assay, read-out: Cell Line GI50 Range OVCAR-3
[9] = test system: Colon tumor initiating cells (TICs), 12 colon; assay: Colon tumor-initiating cell growth inhibition (Alamar Blue); format: cell-based; conditions: 216 h, 9 days, read-out: GI50 range 12 colon
[10] = test system: Ovarian TICs, 2393A ovarian; assay: Ovarian tumor-initiating cell growth inhibition (Alamar Blue); format: cell-based; conditions: 144 h, 6 days, read-out: GI50 range 2393A ovarian
[11] = test system: PA-1 ovarian cancer cells; assay: Cell growth inhibition, Sulforhodamine B assay, PA-1; format: cell-based; conditions: 120 h, 5 days culture, SRB assay, read-out: Cell Line GI50 Range PA-1

SMILES	IC50 [1] [µM]	IC50 [2] [µM]	IC50 [3] [µM]	GI50 [4] [µM]	GI50 [5] [µM]	GI50 [6] [µM]	GI50 [7] [µM]	GI50 [8] [µM]	GI50 [9] [µM]	GI50 [10] [µM]	GI50 [11] [µM]
O=C(Nc1ccc2[nH]nc(-c3ccc(N4CCOCC4)cc3)c2c1)C(c1ccsc1)N1CCCC1 (stereo not shown) [Example A4, N-(3-(4-morpholinophenyl)-1H-indazol-5-yl)-2-(pyrrolidin-1-yl)-2-(thiophen-3-yl)acetamide]	≤ 5	≤ 5	≤ 5	≤ 5	≤ 5	≤ 5	≤ 5	5 to 20	≤ 5	≤ 5	–
CN1CCC(Nc2ccc(-c3n[nH]c4ccc(NC(=O)C(c5ccsc5)N5CCCC5)cc34)cc2)CC1 (stereo not shown) [Example A25]	≤ 5	≤ 5	≤ 5	≤ 5	≤ 5	≤ 5	≤ 5	≤ 5	≤ 5	≤ 5	–
CO[C@@H](C(=O)Nc1ccc2[nH]nc(-c3ccc(OC4CCN(C)CC4)cc3)c2c1)c1ccccc1 [Example A27, (R)-2-methoxy-N-(3-(4-((1-methylpiperidin-4-yl)oxy)phenyl)-1H-indazol-5-yl)-2-phenylacetamide]	≤ 5	≤ 5	≤ 5	5 to 20	≤ 5	≤ 5	≤ 5	5 to 20	≤ 5	≤ 5	–
C[C@H]1CCCN1[C@H](C(=O)Nc1ccc2[nH]nc(-c3ccc(OC4CCN(C)CC4)cc3)c2c1)c1ccsc1 [Example A41, (S)—N-(3-(4-((1-methylpiperidin-4-yl)oxy)phenyl)-1H-indazol-5-yl)-2-((S)-2-methylpyrrolidin-1-yl)-2-(thiophen-3-yl)acetamide]	≤ 5	≤ 5	≤ 5	–	≤ 5	≤ 5	≤ 5	≤ 5	≤ 5	≤ 5	–
Cc1ccccc1C(NC(=O)c1ccc2[nH]nc(-c3ccc(OC4CCN(C)CC4)cc3)c2c1)C(C)C (stereo not shown) [Example A143, N-(2-methyl-1-(o-tolyl)propyl)-3-(4-((1-methylpiperidin-4-yl)oxy)phenyl)-1H-indazole-5-carboxamide]	≤ 5	≤ 5	≤ 5	≤ 5	≤ 5	≤ 5	≤ 5	≤ 5	–	–	≤ 5
CN1CCC(Oc2ccc(-c3n[nH]c4ccc(NC(=O)C(c5ccccc5)C5CCCC5)cc34)cc2)CC1 (stereo not shown) [Example A148, 2-cyclopentyl-N-(3-(4-((1-methylpiperidin-4-yl)oxy)phenyl)-1H-indazol-5-yl)-2-phenylacetamide]	≤ 5	≤ 5	≤ 5	≤ 5	≤ 5	≤ 5	≤ 5	≤ 5	–	–	≤ 5

More lines, now with the values ahead:

IC50 [1] [µM]	IC50 [2] [µM]	IC50 [3] [µM]	GI50 [4] [µM]	GI50 [5] [µM]	GI50 [6] [µM]	GI50 [7] [µM]	GI50 [8] [µM]	GI50 [9] [µM]	GI50 [10] [µM]	GI50 [11] [µM]	SMILES
≤ 5	≤ 5	≤ 5	–	≤ 5	≤ 5	–	–	≤ 5	≤ 5	–	O=C(NC(c1ccccc1)C1CC1)c1ccc2[nH]nc(-c3ccc(N4CCOCC4)cc3)c2c1 (stereo not shown) [Example A12, N-(cyclopropyl(phenyl)methyl)-3-(4-morpholinophenyl)-1H-indazole-5-carboxamide]
≤ 5	≤ 5	≤ 5	≤ 5	≤ 5	≤ 5	≤ 5	≤ 5	–	–	≤ 5	CCC(NC(=O)c1ccc2[nH]nc(-c3ccc(OC4CCN(CCOC)CC4)cc3)c2c1)c1ccccc1 (stereo not shown) [Example A153, 3-(4-((1-(2-methoxyethyl)piperidin-4-yl)oxy)phenyl)-N-(1-phenylpropyl)-1H-indazole-5-carboxamide]
≤ 5	≤ 5	≤ 5	≤ 5	≤ 5	≤ 5	≤ 5	≤ 5	–	–	≤ 5	COCCN1CCC(Oc2ccc(-c3n[nH]c4ccc(C(=O)NC(c5ccsc5)C5CCCC5)cc34)cc2)CC1 (stereo not shown) [Example A155, N-(cyclopentyl(thiophen-3-yl)methyl)-3-(4-((1-(2-methoxyethyl)piperidin-4-yl)oxy)phenyl)-1H-indazole-5-carboxamide]
≤ 5	≤ 5	≤ 5	≤ 5	≤ 5	≤ 5	≤ 5	≤ 5	–	–	≤ 5	CN(C)C(=O)CN1CCC(Oc2ccc(-c3n[nH]c4ccc(C(=O)NC(c5ccccc5)C5CC5)cc34)cc2)CC1 (stereo not shown) [Example A158, N-(cyclopropyl(phenyl)methyl)-3-(4-((1-(2-(dimethylamino)-2-oxoethyl)piperidin-4-yl)oxy)phenyl)-1H-indazole-5-carboxamide]
≤ 5	≤ 5	≤ 5	≤ 5	≤ 5	≤ 5	≤ 5	≤ 5	–	–	≤ 5	CN1CCC(Oc2ccc(-c3n[nH]c4ccc(C(=O)NC(c5ccccc5)C5CCCC5)cc34)cc2)CC1 (stereo not shown) [Example A159, N-(cyclopentyl(phenyl)methyl)-3-(4-((1-methylpiperidin-4-yl)oxy)phenyl)-1H-indazole-5-carboxamide]
≤ 5	≤ 5	≤ 5	≤ 5	≤ 5	≤ 5	≤ 5	≤ 5	–	–	≤ 5	COCCN1CCC(Oc2ccc(-c3n[nH]c4ccc(C(=O)NC(c5ccccc5)C5CCCC5)cc34)cc2)CC1 (stereo not shown) [Example A161, N-(cyclopentyl(phenyl)methyl)-3-(4-((1-(2-methoxyethyl)piperidin-4-yl)oxy)phenyl)-1H-indazole-5-carboxamide]
